The text below walks through data of patent US8545834B2, “G-substrate for the treatment and prevention of parkinson's disease” (The McLean Hospital Corporation, priority 2007, dated 2013).

The subject of data set [1] is PP2A. As to the kind of experiment: PP2A activity assay (immunoprecipitated PP2A, phosphopeptide, Malachite Green). The data set is classed as cell-based, human. The procedure:
PP2A activity was measured in control BE(2)-M17 cells at various incubation times (t=0, 1, 2, 5 and 8 hr) after exposure to 50 μM 6-OHDA. […] Control, wild-type, and T123A G-substrate-expressing cells were then exposed to 50 μM 6-OHDA for 2 hours before measurement of PP2A activity.
PP2A activity was measured using a non-radioactive kit according to the manufacturer's instruction (Upstate Biotechnologies, Lake Placid, N.Y.). After 50 μM 6-OHDA exposure with various times, cells were harvested in 20 mM imidazole-HCl, 2 mM EDTA, 2 mM EGTA, pH7 with a protease inhibitor cocktail (Sigma). Protein concentrations of the lysates were measured using BCA assay (Pierce) and 500 μg of protein was immunoprecipitated using an anti-PP2A catalytic subunit antibody and protein A-Sepharose beads. Immunoprecipitated PP2A was then incubated with phosphopeptide (K-R-pT-I-R-R (SEQ ID NO: 8)) for 10 min at 37° C. Dephosphorylation of the phosphopeptide was assayed spectrophotometrically at 650 nm using Malachite Green.

In data set [2] the test system is A9 DA neurons. The data set is classed as in vivo, rat. The settings on record: rats, intra-striatal 6-OHDA. An excerpt: Retrograde 6-OHDA lesioning within the striatum is a well-established method of creating progressive degeneration of A9 DA neurons. The loss of TH immunoreactivity reflects actual loss of DA neurons (Sauer, 1994).
The in vivo neuroprotective effects of G-substrate against 6-OHDA-induced toxicity was examined by injecting 6-OHDA into the corpus striatum of rats which previously had either G-substrate or control genes (empty vector or YFP) delivered to the midbrain using the lentivirus as described above. 6-OHDA induced approximately an 80% loss of TH-positive neurons in the midbrain (FIG. 12Q) and complete loss of TH immunoreactivity in the striatum (data not shown). The severity of the striatal insult in this paradigm precluded our ability to usefully measure protection of striatal nerve terminals. […] Furthermore, most of the surviving TH-positive neurons in lenti G-substrate-transduced rats were strongly G-substrate-positive (FIGS. 12G-12L).
Rats received two 2.75 μl stereotaxic injections of either lenti-empty vector+lenti-eGFP (n=19), lenti-G substrate+lenti-eGFP (n=19), or lenti-YFP (n=14) and delivered at a rate of 0.2 μl/min using microinfusion pumps (Stoelting Co, Wood Dale, Ill.) with 10 min wait times after each injection. Lenti-eGFP was added to each condition, excluding the YFP condition, to serve as an exogenous marker for surgical targeting (0.5 μl of the total 5.5 μl A volume). SN injection coordinates were as follows: site 1: AP −4.8, ML −2.0, DV −7.2; site 2: AP −5.5, ML −1.8, DV −7.2; and tooth bar set at −3.3. Virus titers (p24) were as follows: G substrate, 60 ng/μl; empty vector, 60 ng/μl; eGFP, 83 ng/μl; and YFP, 60 ng/μl.
Two weeks following lentiviral injection, animals (lenti-empty vector+lenti-eGFP (n=9), lenti-G substrate+lenti-eGFP (n=9), or lenti-YFP (n=14)) received three 2.5 μl stereotaxic injections of 3.0 μg/μl 6-OHDA (total dose=22.5 μg 6-OHDA) delivered at a rate of 0.5 μl/min and 5 min wait times after each injection. Striatum injection coordinates were as follows: site 1: AP +1.3, ML −2.8, DV −4.5; site 2: AP +0.2, ML, −3.0, DV −5.0; site 3: AP −0.6, ML −4.0, DV −5.5; and tooth bar set at −3.3. The lesion was allowed to progress for 3 weeks after which animals were sacrificed for post mortem analyses.
Brains were cut frozen in the coronal plane at a thickness of 40 μm on a sliding microtome and six series of sections were stored in cryoprotectant. Two full series of sections were processed for visualization of tyrosine hydroxylase (TH) via the biotin-labeled antibody procedure. Briefly, following several washes in a PBS solution containing 0.01% Triton X-100 (PBS-T), endogenous peroxidase was quenched in a 3% hydrogen peroxide solution and background staining was then inhibited in a 5% normal goat serum solution. […]

In data set [3] the test system is BE(2)-M17 cells. As to the kind of experiment: In vitro protection assays (MTS cell viability, LDH release) against neurotoxins. It is filed as cell-based, human. To be noted: for protection against 50 μM 6-OHDA exposure by PP2A inhibition (MTS cellular viability): BE(2)-M17 cells without elevated G-substrate, normalized to control. The procedure:
Viability of the M17 cells was assessed following exposure to a variety of neurotoxins, each representing different aspects of PD pathology. 6-hydroxydopamine (6-OHDA) causes oxidative stress. MG-132 induces proteasome inhibition. And, MPP+ causes mitochondrial dysfunction by inhibiting Complex I. Cytotoxicity of M17 cells was determined using both cell viability assays and LDH release. G-substrate overexpression in M17 cells was confirmed by Western blot analysis (FIG. 3A) and by immunocytochemistry (FIG. 3B).
BE(2)-M17 cells were transduced with lentivirus expressing control or G-substrate with a multiplicity of infection 15. Cells were grown in Optimem™ (Invitrogen, Carlsbad, Calif.) supplemented with 10% heat-inactivated fetal calf serum (Hyclone, Logan, Utah), nonessential amino acid and sodium pyruvate. Cells were maintained at 37° C., in 5% CO2 humid atmosphere. For the bioassay, cells were plated in 96 well plates at 5000 per well. The next day, cells were treated with various concentrations of 6-OHDA (Sigma), MG-132 (Calbiochem) and MPP+ (Sigma) for 20 hrs. The supernatant was used to determine cytotoxicity using LDH release assay kit (Roche, Indianapolis, Ind.) and the cells remaining on the plate was used to determine cell viability using MTS based solution, CellTiter 96 AQueous One™ solution cell proliferation assay (Promega, Madison, Wis.).
Three different siRNAs for human G-substrate as described herein, a negative control siRNA, and a validated Akt siRNA (Ambion; Austin, Tex.) were used. Cells were plated in 96 well plates at 5000 per well with siRNAs and siPORT NeoFX transfection agent (Ambion, Austin, Tex.). After 48 hrs of incubation with siRNAs, each of the toxicants (6-OHDA, MG-132 or MPP+) were applied to the cells. Cell viability and cytotoxicity was measured after 20 hrs of toxin exposure.

Data set [4] deals with VMAT2. As to the kind of experiment: Western blot of VMAT2 expression in M17 cells. The data set is classed as cell-based, human. To be noted: naïve M17 cells. An excerpt: BE(2)-M17 cells were used to investigate the interaction between G-substrate and α-synuclein, a known risk factor and possible causative agent in Parkinson's disease. […] Likewise, VMAT2 expression was reduced in naïve M17 cells following the reduction in endogenous G-substrate using siRNA (FIG. 10C).
M17 cells transiently and stably overexpression α-synuclein were transfected using the G-substrate lentiviral vector described above.
The PP2A regulation of VMAT 2 was investigated in M17 cells. PP2A levels were reduced using RNAi. […] The effect of PP2A inhibition was not generalized to other dopaminergic markers tested.
Cells and tissue samples were collected from and suspended in lysis buffer containing: 50 mM Tris-HCl, 0.15 M NaCl, 0.32 M sucrose, 1.0 mM EDTA, and 1% NP-40. In addition, phosphatase inhibitors I and II (1:100) and protease inhibitors (1:100) were added fresh prior to cell lysis (Sigma-Aldrich, P2850, P5276, and P8340 respectively). Following cell lysis, the homogenate was centrifuged, a portion of the supernatant was reserved for protein determination (BCA Assay, Pierce, Rockford, Ill.) and the remaining was stored at −20° C. 20 μg (in vitro cell preps) and 50 μg (tissue dissections) of solubilized protein were mixed 1:1 with sample buffer and boiled for 5 min. The samples and molecular weight standards were separated using the Criterion precast 10% SDS-polyacrylamide gel system (Bio-Rad, Hercules, Calif.). After electrophoresis, the proteins were electrically transferred to PVDF membranes at 100 V for 30 min. After transfer, blots were incubated in Tris-buffered saline with 0.1% Tween 20 (TBS-T) containing 5% BSA. Subsequently, blots were incubated with the following antibodies at 4° C. overnight (1:1000 unless otherwise stated): phospho-Akt (ser473), phospho-GSK3β (ser9), phospho-erk1/2, and phospho-p38 (Cell Signaling Technologies, Danvers, Mass.). HRP-conjugated secondary antibodies were then applied and immunoreactive bands were visualized with chemiluminescence (Amersham Biosciences, Arlington Heights, Ill.) and exposed onto film. Immunoblots were then stripped and re-probed for the expression of the total protein (Cell Signaling) and beta-actin (1:10 000) (Abcam) to serve as a loading control. Optical density analysis (NIH image) was used to determine the relative abundance of protein in each sample. The optical densities of the phospho epitopes were standardized to their respective total proteins and this value was used in the statistical analyses.
Background: In western blotting, separated proteins are transferred to a membrane and probed.

Where [5] appears, read: lentiviral overexpression in BE(2)-M17 cells, toxin 20 hrs, compared to control.

For the molecule `NCCc1cc(O)c(O)cc1O` [6-OHDA, 6-hydroxydopamine, reference compound], in data set [1] (control BE(2)-M17 cells, 50 μM 6-OHDA, t=1, 2, 8 hr (all times except t=5 hr)), the “PP2A activity compared to basal activity” value was “significantly increased”. For the same molecule, the “loss of TH-positive neurons in the midbrain” value in data set [2] (3 weeks) is reported as about 80%. Also, the “loss of TH immunoreactivity in the striatum” value in data set [2] (data not shown) is “complete loss”.

Regarding `C=C1[C@@H](O)[C@@H]2O[C@]3(CC[C@H](/C=C/[C@@H](C)[C@@H]4CC(C)=C[C@@]5(O[C@H](C[C@@](C)(O)C(=O)O)CC[C@H]5O)O4)O3)CC[C@H]2O[C@@H]1[C@@H](O)C[C@H](C)[C@H]1O[C@@]2(CCCCO2)CC[C@H]1C` [okadaic acid, reference compound], the “protection against 50 μM 6-OHDA exposure by PP2A inhibition (MTS cellular viability)” value in data set [3] is reported as “none of these methods alone were protective”. Further, the VMAT2 expression entry in data set [4] was “increased VMAT2 levels”.

As for `COC[C@@H]([C@H](O)[C@H](O)C(=O)NCC[C@H](C)c1nc(/C=C/C[C@@H]2O[C@]3(C[C@@H](O)[C@@H]2C)O[C@H]([C@H](C[C@H](O)[C@H](C)[C@H](O)[C@H](C)/C=C(C)/C(C)=C/C=C/C(C)=C\C#N)OC)[C@H](OP(=O)(O)O)C3(C)C)co1)N(C)C` [calyculin A, reference compound], the “protection against 50 μM 6-OHDA exposure by PP2A inhibition (MTS cellular viability)” value in data set [3] was “none of these methods alone were protective”. Also, the VMAT2 expression entry in data set [4] is reported as “increased VMAT2 levels”.

As for “T123A mutant G-substrate: mutant G-substrate with Thr to Ala point mutation at Thr 123 (T119A of human), overexpressed from a lentiviral vector”, in data set [3] (lentiviral overexpression in BE(2)-M17 cells), the “protection against 6-OHDA and MG-132 compared to the wild-type” value is “significantly less effective”. Also, in data set [3] (lentiviral overexpression in BE(2)-M17 cells, toxin 20 hrs), the “protection against MPP+-induced toxicity (cell viability, LDH release)” value is on record as “neither wild-type nor T123A mutant G-substrate overexpression was protective”. Moreover, in data set [3] (setting [5]), the “neuroprotection against 6-OHDA toxicity (cell viability, LDH release)” value was “neuroprotective” and the “neuroprotection against MG-132 toxicity (cell viability, LDH release)” value is given as “neuroprotective”. The “PP2A activity in G-substrate-expressing cells” value in data set [1] (BE(2)-M17 cells exposed to 50 μM 6-OHDA for 2 hours, versus control cells) is recorded as “reduced compared to controls, but not reduced as much as observed in the wild-type G-substrate-expressing cells”.
